The values below come from article PMC10049354, “Anti-Inflammatory Effects and Photo- and Neuro-Protective Properties of BIO203, a New Amide Conjugate of Norbixin, in Development for the Treatment of Age-Related Macular Degeneration (AMD)” (International Journal of Molecular Sciences, 2023).

The subject of series [1] is albino rats exposed to blue-light-induced photoreceptor degeneration. In words: Blue-light damage (BLD) study in albino rats: ERG. It is filed as in vivo, rat. The note with it: for effect on visual function (ERG A-wave and B-wave): four IP administrations; for efficacy dose in the rat model of BLD: IP. As to the method:
(§1) The ERG in rats was performed using the electrophysiological system RETI-animal® from Roland Consult. ERG was recorded on both eyes from overnight dark-adapted animals. Rats were anesthetized by an intramuscular injection of a mix of Rompun® (xylazine)/Imalgene® (ketamine) before ERG measurement. Ten to fifteen minutes before measurement, one drop of Mydriaticum® (0.5% tropicamide) was instilled for pupillary dilatation. The A-wave and B-wave implicit times (ms) and amplitudes (µV) were measured for each ERG. The B-wave amplitude (value and %) was given as informative data. ERG parameters: Ganzfeld Q450C, Color: white maximum, Maximum intensity: 3 cd/m^2 (0 dB); Duration 0.24 ms; number of flashes: 1, Filter: 50 Hz, Impedance threshold: 50 kΩ. For scotopic ERGs, the A-wave amplitudes were measured from the baseline to the peak of the negative potential, whereas B-wave amplitudes were measured from the trough of the A-wave to the peak of the positive potential. The recordings obtained from these analyses were tabulated and normalized (%) for each eye. Group means, standard deviation, and median values were calculated, considering each eye from one animal as a separate value. ERG recordings in mice were performed as previously described.
(§2) Sixty-four animals were selected based on good health and on scotopic electroretinogram performed before induction when the A-wave amplitude of both eyes was in the range of the global mean (all animals) of A-wave amplitude ± 1.96 SD. Animals were then randomized into the study groups using a macro function in Excel® software based on the A-wave amplitude of both eyes (mean value). On Day 0, BIO203, negative controls, and comparator (N-tert-Butyl-a-phenylnitrone (PBN)) were intraperitoneally injected using a 25 G needle in rats that have been dark-adapted for 36 h. Individually housed rats were then exposed for 6 h (±5 min) to a continuous blue, fluorescent light (400–540 nm) in clear plastic cages. After exposure and administration, the rats were placed in a dark room for 24 h (±1 h) and then were returned to rearing cyclic light conditions.

Series [2] shares this test system. The series is described as follows: Blue-light damage (BLD) study in albino rats: retinal histology (photoreceptor layers). It is filed as in vivo, rat. The note with it: for preservation of retinal structure (photoreceptor layers): four IP administrations, 6 h blue-light exposure. As to the method: At the end of the measurement period on Day 7, rats were euthanized by an intraperitoneal injection of pentobarbital. Immediately after euthanasia, both eyeballs were sampled, fixed in Davidson’s solution, and processed for histology. Sections (5 to 7 µm thick) were performed along the vertical meridian and stained with Haematoxylin/Eosin stain. The vertical meridian included the optic nerve. […] The thickness of the outer nuclear layer was measured on each point. […] Histology and photoreceptor counting in mice were performed as previously described.
as §2

For series [3], the system named is VEGF. Also on record: method as in PMID 34544906. The note with it: norbixin at 20 mM (so in the source); cited from earlier work.
In series [4] the test system is NF-κB. Also on record: method as in PMID 34544906. The conditions noted are these: cited from earlier work.
In series [5] the test system is Abca4−/− Rdh8−/− mice. The series is described as follows: ERG after 6 months of oral complementation in Abca4−/− Rdh8−/− mice. It is filed as in vivo, mouse. As to the method:
as §1
A custom rodent diet was formulated and irradiated (25 kGy) by Envigo RMS SARL (Gannat, France). Low dose (LD)-BIO203 (50 μg/g) and high dose (HD)-BIO203 (500 μg/g) were incorporated into Teklad Custom Research Diet 2016© pellets. The pellets were stored at −20 °C until use and were administered ad libitum as the standard Teklad Global Rodent Diet 2016© used for the control group. The concentration of BIO203 in the customized pellets at the end of each batch was determined by HPLC MS/MS. The mean concentration was 46 μg/g ± 3.5 μg/g of pellet for the LD and 464 μg/g ± 24.3 μg/g of pellet for the HD. We calculated that in the LD group, male mice weighing 31.63 g after 2 months of complementation consumed 4.16 g of pellets, and in the HD group, male mice weighing 34.11 g after 2 months of complementation consumed 4.11 g of pellets every day, which correspond to a daily dose of 6.04 ± 0.46 mg/kg for the LD-BIO203 pellets and 55.91 ± 2.93 mg/kg for the HD-BIO203 pellets.
To test the preventive/curative action of oral administration of BIO203 against retinal neurodegeneration, a total of 27 Pigmented Abca4^−/− Rdh8^−/− mice carrying the Rpe65-Leu450 mutation and the rd8 mutation in the Crb1 gene from Case Western Reserve University of eleven to twelve months of age were used. […] After 6 months of complementation, ERG was measured in both eyes. […] In each group, half of the eyes were removed for A2E and BIO203 measurements, and half of the eyes were used for histological analyses and photoreceptor layer quantification.

Series [6] concerns AP-1. The series is described as follows: AP-1 transactivation assay induced by A2E. The note with it: compound 20 μM; A2E 20 μM. The format is cell-based, pig. As to the method:
Transactivation assays were performed as previously described. Briefly, RPE cells were plated in DMEM 2% FCS at a density of 6 × 10^4 cells/cm^2. The next day transfections using the Cignal Reporter Assay Kits for PPAR, RXR, AP-1, and NF-κB were performed with Lipofectamine and Plus Reagent in serum-free medium. Three hours after the transfection, A2E and/or BIO203, both at 20 μM, were added to the culture medium for 24 h. Luciferase activity was measured using the Dual-Luciferase Reporter Assay System and with a luminometer (Infinite M1000 from Tecan, Mannedorf, Switzerland). At least 3 independent transfections were performed in triplicate for each condition.

In the case of `CC(=C/C=C/C(C)=C/C=C/C=C(C)/C=C/C=C(C)/C=C/C(=O)O)/C=C/C(=O)O` [norbixin, 9′-cis-norbixin], the “effect on visual function (ERG A-wave and B-wave)” value in series [1] (50 mg/kg, positive controls) is given as “protected the visual functions”. In addition, the “efficacy dose in the rat model of BLD” value in series [1] is on record as 50 mg/kg. Also, the “preservation of retinal structure (photoreceptor layers)” value in series [2] (50 mg/kg, p < 0.0001) was “partially preserved the retinal structure”. Also, the “effect on VEGF mRNA expression” value in series [3] is on record as “significantly reduced”. Besides, the “change of NF-κB transactivation induced by A2E” value in series [4] is −73%.

In the case of `COC1CCCN(C(=O)/C=C/C(C)=C/C=C/C(C)=C/C=C/C=C(C)/C=C/C=C(C)\C=C\C(=O)O)C1` (stereo not drawn) [BIO203], the “effect on visual function (ERG A-wave and B-wave)” value in series [1] (5 mg/kg, ERG 7 days after blue light) is on record as “no significant effect”; in series [1] (10 mg/kg, ERG 7 days after blue light), “no significant effect”; in series [1] (25 mg/kg, ERG 7 days after blue light, p < 0.0001), “protective effect”. Moreover, the “efficacy dose in the rat model of BLD” value in series [1] is given as 25 mg/kg. In addition, the “preservation of retinal structure (photoreceptor layers)” value was “did not observe neuroprotection” in series [2] (5 mg/kg); “did not observe neuroprotection” in series [2] (10 mg/kg); “partially preserved the retinal structure” in series [2] (25 mg/kg, p < 0.0001). Moreover, the “neuroprotective effect compared to vehicle (preliminary experiment)” value in series [2] (BIO203 at 2.5 mg/mL (so in the source), IP, rat BLD) is on record as “limited neuroprotective effect”. In addition, the “photopic B wave ERG compared with control pellets” value in series [5] (HD pellets) was “no significant difference”. Moreover, the “scotopic A wave ERG compared with control pellets” value in series [5] (HD pellets, flash intensities 1 and 10 cd.s/m^2, p < 0.05) was “significantly superior”. For the same compound, the “scotopic B wave ERG compared with control pellets” value in series [5] (HD pellets, flash intensity 30 cd.s/m^2, p < 0.05) was “reduced the loss”. For the same compound, in series [5] (LD pellets), the “effect on the visual function (ERG)” value was “No effect”. Moreover, the “inhibition of AP1 transactivation induced by A2E” value in series [6] is listed as “inhibited”.
